This is an account of results in patent US20120003661A1, “METHODS AND DEVICES FOR THE SELECTIVE DETECTION OF MICROORGANISMS” (C3 JIAN, INC., priority 2010, published 2012).

“Also recorded” adds a separate entry of the source.

One assay has as its system bacteria, fungi, and/or yeasts. Type of assay: binding. As to conditions: microorganism(s) listed as target(s) of the targeting peptide; wrapped target lists given cell by cell.
Consider “1T-249 (VFSVLKHTTWPTRKQSWHDFISILEYSAFFALVIFIFDKLLTLGLAELLKRF)”, for which the “Target(s)” value was “F. nucleatum, S. sanguinis”. Still for that read-out and setting: the same measure for PF-144 (RSGQPVGRPSRRAWLR): “S. epidermidis, M. luteus, E. coli,; also recorded: C. albicans, MRSA, S. pneumoniae,; also recorded: E. faecalis, C. jeikeium”; for PF-128 (GIKVVAARFEEIQFSENFDSIILA): “M. luteus, P. aeruginosa, E. faecalis”.

Consider PF-129 (MKLLARDPWVCAWNDIW), for which the “Target(s)” value is “S. epidermidis, MRSA, E. faecalis,; also recorded: C. jeikeium, C. jejuni”. Still for that read-out and setting: the same measure for TT-305 (ARNALNMRDVPVDAAIIGIIDGMDEE): “F. nucleatum”; for PF-014 (HPTDNKHN): “E. coli, C. jeikeium”.

As to PF-137 (VLGKGHDLLDVGKTALKSRVFAWLGGS), the “Target(s)” value is “S. epidermidis, P. mirabilis, S. pneumoniae,; also recorded: C. jeikeium, C. jejuni”.

For PF-001 (MNNWIIVAQLSVTVINEIIDIMKEKQKGGK), the “Target(s)” value is given as “S. epidermidis, M. luteus, P. mirabilis,; also recorded: E. coli, P. aeruginosa,; also recorded: C. albicans, MRSA, E. faecalis,; also recorded: C. jeikeium”.

Take PF-035 (SFYESY): the “Target(s)” value was “S. epidermidis, M. luteus, E. coli,; also recorded: C. albicans, MRSA, C. jeikeium,; also recorded: C. jejuni”.

Consider PF-003 (MNNWIKVAQISVTVINEVIDIMKEKQNGGK), for which the “Target(s)” value is listed as “S. epidermidis, M. luteus, P. mirabilis,; also recorded: C. albicans, MRSA, C. jeikeium”. As to 1T-300 (PLIISKAQIKMSGDILGSCFKLFYLRPFF), the “Target(s)” value is listed as “S. salivarious, S. sanguinis; also recorded: A. naeslundii, F. nucleatum, P. gingivalis,; also recorded: S. epidermidis, S. gordonii,; also recorded: S. mitis, S. mutans, S. oralis,”. Same read-out and setting: the result for PF-S024 (SKRGRKRKDRRKKKANHGKRPNS) reads “Corynebacteria spp”; that for PF-050 (SYYLKRREEKGK), “S. epidermidis, M. luteus, E. coli,; also recorded: C. jeikeium”; that for “1T-283 (LCTKLEDKQRGRIPAELFIISPIKILERNDAL)”, “A. naeslundii, F. nucleatum, P. gingivalis,; also recorded: T. denticola, S. epidermidis,; also recorded: S. gordonii, S. mitis,; also recorded: S. mutans, S. oralis, S. salivarious,; also recorded: S. sanguinis”.

Still in this assay, the particulars now being: microorganism(s) that the targeting peptide binds, as listed in Table 2.
PF-C068 (LNLFASI): the “Target(s)” value is “A. naeslundii, F. nucleatum, S. mutans”. On the same count and under the same terms, the same measure for PF-789 (PRGAQSGHG): “Mycobacteria spp”. On the same count and under the same terms, the result for PF-788 (GLITVFAGTARILQLRRAAKKTHAAALR) reads “Mycobacteria spp”; that for “PF-C086 (ELFFTILSDCNELFLLHLLQQPLFYIKKGK)”, “A. naeslundii, F. nucleatum, P. gingivalis,; also recorded: S. mutans, T. denticola”. The same measure, in the same setting: the same measure for PF-C160 (AASGFTYCASNGVWHPY): “F. nucleatum”; for PF-785 (MRPQHSPAGKAFVVKKITHEQS): “Mycobacteria spp”. In the case of PF-C064 (DEEALEMGANLYAQFAIDFLNSKK), the “Target(s)” value is listed as “A. naeslundii, F. nucleatum, P. gingivalis,; also recorded: S. mutans, T. denticola”. On the same count and under the same terms, the same measure for PF-C139 (LLASHPERLSLGVFFVYRVLHLLLENT): “A. naeslundii, F. nucleatum, P. gingivalis,; also recorded: S. mutans, T. denticola”. Same read-out and setting: the result for PF-S015 (IENLERGARRPP) reads “S. epidermidis, MRSA, C. jeikeium”.

Still in this assay, the particulars now being: microorganism(s) the targeting peptide binds, as listed in Table 2.
Consider 1T-166 (AQSAGQIKRKSKVRIHV), for which the “Target(s)” value was “A. naeslundii, F. nucleatum, P. gingivalis,; also recorded: S. epidermidis, S. gordonii,; also recorded: S. mitis, S. mutans, S. oralis,; also recorded: S. salivarious, S. sanguinis”. Same read-out and setting: the result for “1T-146 (RNSADNQTKIDKIRIDISLWDEHLNIVKQGK)” reads “A. naeslundii, F. nucleatum, P. gingivalis,; also recorded: T. denticola, S. gordonii,; also recorded: S. mitis, S. mutans, S. oralis,; also recorded: S. salivarious, S. sanguinis”; that for 1T-58 (CDDLHALERAGKLDALLSA), “P. aeruginosa”; that for 1T-24 (EEAEEKLAEVSQAVKRLVR), “P. aeruginosa”. In the case of “1T-35 (EICLTLVFPIRGSYSEAAKFPVPIHIVEDGTVELPK)”, the “Target(s)” value is recorded as “P. aeruginosa”. On the same count and under the same terms, the result for 1T-135 (FESLLPQATKKIVNNKGSKINKIF) reads “A. naeslundii, P. gingivalis, S. epidermidis,; also recorded: S. gordonii, S. mitis,; also recorded: S. mutans, S. oralis, S. salivarious,; also recorded: S. sanguinis”; that for 1T-82 (FGVGVGIALFMAGYAIGKDLRKKFGKSC), “S. pneumoniae”; that for 1T-120 (DVRDRVDLAGADLCAAHATR), “A. naeslundii, F. nucleatum, P. gingivalis,; also recorded: S. epidermidis, S. gordonii,; also recorded: S. mitis, S. mutans, S. oralis,; also recorded: S. salivarious, S. sanguinis”. Still for that read-out and setting: the result for “1T-196 (KPEKEKLDTNTLMKVVNKALSLFDRLLIKFGA)” reads “F. nucleatum, S. sanguinis”; that for 1T-89 (HEDDKRRGMSVEVLGFEVVQHEE), “S. mitis, S. mutans”. On the same count and under the same terms, the result for 1T-51 (GKPKRMPAEFIDGYGQALLAGA) reads “S. aureus, P. aeruginosa”. In the case of 1T-59 (AVGNNLGKDNDSGHRGKKHRKHKHR), the “Target(s)” value is reported as “S. aureus, S. epidermidis, P. aeruginosa”. On to 1T-94 (DQVAHSGDMLVQARRRDS), for which the “Target(s)” value is reported as “S. mitis, S. mutans, S. oralis”. Still for that read-out and setting: the same measure for 1T-159 (IFSLHHFALICSEMGTFAVSKRAKYKWEVL): “P. gingivalis”. 1T-103 (AQFYEAIITGYALGAGQRIGQL): the “Target(s)” value is “A. naeslundii, F. nucleatum, P. gingivalis,; also recorded: S. epidermidis, S. gordonii,; also recorded: S. mitis, S. mutans, S. oralis,; also recorded: S. sanguinis”.

As to 1T-67 (GQRQRLTCGRVSGCSEGPSREAAR), the “Target(s)” value is “S. aureus, S. epidermidis, C. jeikeium,; also recorded: C. xerosis, C. striatum,; also recorded: P. aeruginosa”. The same measure, in the same setting: the same measure for 1T-19 (PGAFRNPQMPRG): “S. aureus, S. epidermidis, P. aeruginosa”; for “1T-215 (VCFKDISVFLSPFRGQEVLFCGKAKHSLIYVIGT)”: “S. sanguinis”; for 1T-95 (GHLLRVGGRVGGVGGVAGACAQPFGGQ): “S. gordonii, S. mitis, S. mutans,; also recorded: S. oralis, S. sanguinis”. On the same count and under the same terms, the result for “1T-221 (DIGRIIGKKGRTITAIRSIVYSVPTQGKKVRLVIDEK)” reads “A. naeslundii, F. nucleatum, P. gingivalis,; also recorded: S. epidermidis, S. gordonii,; also recorded: S. mitis, S. mutans, S. oralis,; also recorded: S. salivarious, S. sanguinis”. As for 1T-61 (HATLLPAVREAISRQLLPALVPRG), the “Target(s)” value is reported as “P. aeruginosa”. Still for that read-out and setting: the result for 1T-27 (ALFVSLEQFLVVVAKSVFALCHSGTLS) reads “S. mutans, S. aureus, S. epidermidis,; also recorded: C. jeikeium, C. xerosis,; also recorded: C. striatum, P. aeruginosa”; that for 1T-161 (NKVLQVEVMWDGSVVGRPAGVISIKSSKKG), “A. naeslundii, F. nucleatum, P. gingivalis,; also recorded: S. epidermidis, S. gordonii,; also recorded: S. mitis, S. mutans, S. oralis,; also recorded: S. salivarious, S. sanguinis”. Same read-out and setting: the same measure for 1T-104 (RAVAAHLQGRHHGHQVRRQRHGQR): “S. mitis”; for 1T-151 (SVRAVKPIDEIVAWHFPGDFIVN): “A. naeslundii, F. nucleatum, P. gingivalis,; also recorded: T. denticola, S. gordonii,; also recorded: S. mitis, S. mutans, S. oralis,; also recorded: S. salivarious, S. sanguinis”; for 1T-66 (DTDCLSRAYAQRIDELDKQYAGIDKPL): “S. mutans, S. aureus, S. epidermidis,; also recorded: C. jeikeium, C. xerosis,; also recorded: C. striatum, P. aeruginosa”.
